Several values for one entry are separate records, joined by “and”; a condition that tells them apart may be missing. Equal values may be shown once.
Key:
Format in all cases: in vivo
soybean = assay: Isoflavone levels in soybean after azoxystrobin treatment
Experimental: (§1) Similar work was carried out to look at isoflavone levels in soybean and anthocyanin levels in eggplant and strawberry on treatment of the plants with azoxystrobin. […] In addition, it also raised anthocyanin levels in strawberry by 50% (control: 200-220 mg anthocyanin/100 g strawberry; azoxystrobin treated: 210-420 mg anthocyanin/100 g strawberry), although it seemed to have no effect on anthocyanin levels in egg plant.

[1] = tested on: Tomato plants (Variety: Sunroad); assay: Lycopene content of harvested tomatoes after azoxystrobin spraying; details: for lycopene content, single replicate: stored at room temperature, listed as Az-treated; for lycopene content, single replicate / lycopene content, mean of 3 replicates: conventional fungicide treatment plus azoxystrobin
Experimental: Tomato plants (Variety: Sunroad) were grown and the tomatoes were harvested after spraying with a conventional fungicide treatment and with the conventional treatment plus azoxystrobin. The harvested tomatoes were stored at room temperature and tested for lycopene concentration 2, 5, 9 and 12 days after sample harvesting (three tomatoes were chosen at random from each box on each day of testing).
When this study was repeated using similar conditions but on a smaller scale, a marked rise in lycopene content was not observed (control: 11.7 mg lycopene/100 g tomato; azoxystrobin treated: 10.7 mg lycopene/100 g tomato).

strawberry = assay: Anthocyanin levels in strawberry after azoxystrobin treatment
Experimental: as §1

eggplant = assay: Anthocyanin levels in eggplant after azoxystrobin treatment; details: egg plant
Experimental: as §1

Carrot plants = assay: β-carotene content of harvested carrots after azoxystrobin spraying; details: conventional treatment plus Amistar Opti (azoxystrobin and chlorothalonil)
Experimental: Carrot plants were grown and the carrots were harvested after spraying twice with a conventional fungicide treatment (chlorothalonil, copper hydroxide, iminoctazine polyoxin and tolclofos-methyl) and with the conventional treatment plus Amistar Opti™ (azoxystrobin and chlorothalonil). Some of the harvested carrots were analysed immediately on harvest for β-carotene while others were stored for a week after harvest before analysis. […] It seems therefore that azoxystrobin has a clear effect on β-carotene levels in mature carrots.

[2] = tested on: Tea plants (Japanese green tea, Yabukita); assay: Polyphenol content of tea leaves after pre-harvest spraying; parameters: Total catechin (g): unit not given here; details: autumn; for Total catechin (%) when compared to untreated / % compared to untreated (total catechin): untreated = 100%
Experimental: Tea plants (Japanese green tea, Yabukita) were grown in 5 m^2 plots, and the leaves were harvested. The harvested leaves were tested for polyphenols. Fourteen days before harvest, the tea plants were sprayed with a commercial formulation of emamectin benzoate (Affirm™), difenoconazole (Score™), methidathion (Supracid™), azoxystrobin (Amistar™) or a mixture of lufenuron and thiamethoxam. An otherwise identical set of tea plants were left untreated.
The experiment was repeated using either azoxystrobin or trifloxystrobin.
Both trials detailed above were carried out in the autumn. […] It is proposed that, when photosynthesis is active (e.g. in the summer season), addition of azoxystrobin may not enhance photosynthesis further and thus may not be able to further raise catechin levels.

[3] = 12 days after sample harvesting
[4] = Table 1 trial, commercial formulation sprayed 14 days before harvest

CO/C=C(/C(=O)OC)c1ccccc1Oc1cc(Oc2ccccc2C#N)ncn1 [Azoxystrobin, azoxystrobin]
isoflavone content (soybean; control 120): 130 mg isoflavone/100 g soybean
increase of isoflavone levels (soybean; soybean, versus control): 8%
lycopene content, single replicate ([1]; 2 days after sample harvesting): 5.69 mg lycopene/100 g tomato and 5.67 mg lycopene/100 g tomato and 5.14 mg lycopene/100 g tomato
lycopene content, mean of 3 replicates ([1]; 2 days after sample harvesting): 5.50 mg lycopene/100 g tomato
lycopene content, single replicate ([1]; 5 days after sample harvesting): 8.36 mg lycopene/100 g tomato and 8.87 mg lycopene/100 g tomato and 6.01 mg lycopene/100 g tomato
lycopene content, mean of 3 replicates ([1]; 5 days after sample harvesting): 7.75 mg lycopene/100 g tomato
lycopene content, single replicate ([1]; 9 days after sample harvesting): 9.78 mg lycopene/100 g tomato and 9.14 mg lycopene/100 g tomato and 8.32 mg lycopene/100 g tomato
lycopene content, mean of 3 replicates ([1]; 9 days after sample harvesting): 9.08 mg lycopene/100 g tomato
lycopene content, single replicate [1, 3]: 8.27 mg lycopene/100 g tomato and 8.88 mg lycopene/100 g tomato and 9.24 mg lycopene/100 g tomato
lycopene content, mean of 3 replicates [1, 3]: 8.79 mg lycopene/100 g tomato
lycopene content ([1]; repeat study, similar conditions, smaller scale, control 11.7): 10.7 mg lycopene/100 g tomato
anthocyanin content (strawberry; control 200-220): 210-420 mg anthocyanin/100 g strawberry
rise of anthocyanin levels (strawberry; strawberry, versus control): 50%
effect on anthocyanin levels (eggplant): no effect
β-carotene levels compared with conventional fungicide regime (Carrot plants; carrots analysed immediately on harvest, sprayed twice): did not show an increase
β-carotene content (Carrot plants; carrots stored for one week after harvest, conventional treatment 6.59): 7.48 mg β-carotene/100 g carrot
Epicatechin [2, 4]: 930 mg polyphenol/100 g tea leaves
Epicatechin gallate [2, 4]: 960 mg polyphenol/100 g tea leaves
Epigalocatechin [2, 4]: 4800 mg polyphenol/100 g tea leaves
Epigalocatechin gallate [2, 4]: 6200 mg polyphenol/100 g tea leaves
Total catechin (%) when compared to untreated ([2]; Table 1 trial): 113%
Epicatechin ([2]; Table 2 repeat trial): 24.5 mg polyphenol/g tea leaves
Epicatechin gallate ([2]; Table 2 repeat trial): 31.1 mg polyphenol/g tea leaves
Epigalocatechin ([2]; Table 2 repeat trial): 178.8 mg polyphenol/g tea leaves
Epigalocatechin gallate ([2]; Table 2 repeat trial): 160.6 mg polyphenol/g tea leaves
Total catechin ([2]; Table 2 repeat trial): 395.0 mg polyphenol/g tea leaves
% compared to untreated (total catechin) ([2]; Table 2 repeat trial): 107%

CC1COC(Cn2cncn2)(c2ccc(Oc3ccc(Cl)cc3)cc2Cl)O1 (stereo not shown) [DFZ, difenoconazole]
Epicatechin [2, 4]: 950 mg polyphenol/100 g tea leaves
Epicatechin gallate [2, 4]: 970 mg polyphenol/100 g tea leaves
Epigalocatechin [2, 4]: 4300 mg polyphenol/100 g tea leaves
Epigalocatechin gallate [2, 4]: 5900 mg polyphenol/100 g tea leaves
Total catechin (%) when compared to untreated ([2]; Table 1 trial): 106%

COc1nn(CSP(=S)(OC)OC)c(=O)s1 [MTH, methidathion]
Epicatechin [2, 4]: 1100 mg polyphenol/100 g tea leaves
Epicatechin gallate [2, 4]: 1100 mg polyphenol/100 g tea leaves
Epigalocatechin [2, 4]: 4500 mg polyphenol/100 g tea leaves
Epigalocatechin gallate [2, 4]: 5700 mg polyphenol/100 g tea leaves
Total catechin (%) when compared to untreated ([2]; Table 1 trial): 109%

CON=C(C(=O)OC)c1ccccc1CON=C(C)c1cccc(C(F)(F)F)c1 [Trifloxystrobin, trifloxystrobin]
Epicatechin ([2]; Table 2 repeat trial): 23.8 mg polyphenol/g tea leaves
Epicatechin gallate ([2]; Table 2 repeat trial): 32.4 mg polyphenol/g tea leaves
Epigalocatechin ([2]; Table 2 repeat trial): 190.1 mg polyphenol/g tea leaves
Epigalocatechin gallate ([2]; Table 2 repeat trial): 163.0 mg polyphenol/g tea leaves
Total catechin ([2]; Table 2 repeat trial): 409.3 mg polyphenol/g tea leaves
% compared to untreated (total catechin) ([2]; Table 2 repeat trial): 110%

emamectin benzoate
Epicatechin [2, 4]: 960 mg polyphenol/100 g tea leaves
Epicatechin gallate [2, 4]: 890 mg polyphenol/100 g tea leaves
Epigalocatechin [2, 4]: 4600 mg polyphenol/100 g tea leaves
Epigalocatechin gallate [2, 4]: 5600 mg polyphenol/100 g tea leaves
Total catechin (g) ([2]; Table 1 trial, sprayed 14 days before harvest, table title: mg polyphenol/100 g tea leaves): 12050
Total catechin (%) when compared to untreated ([2]; Table 1 trial): 106%

Source: US20090298859A1, “METHOD FOR TREATING PLANTS” (SYNGENTA CROP PROTECTION, INC., priority 2006, published 2009)
